Laboratory results: patent publication US3965109A, “Certain aryl amino pyridines” (priority 1971, dated 1976)

Tests used:
[1] = test system: Musca domestica (houseflies); experiment: Pest toxicity test, contact test; assay type: in vivo; conditions: 0.1% by weight; milk/sugar; 2 days; flies sprayed directly
[2] = test system: Tomato; experiment: Herbicidal test, pre- and post-emergence; assay type: in vivo; conditions: 10 lb/acre (11.2 kg/ha); scale 0 (no effect) to 3 (complete kill)
[3] = test system: Phaedon cochleariae (mustard beetles); experiment: Pest toxicity test; assay type: in vivo; conditions: 0.1% by weight; mustard/paper; 2 days
[4] = test system: Aedes aegypti (mosquito larvae); experiment: Pest toxicity test; assay type: in vivo
[5] = test system: Maize; experiment: Herbicidal test, pre- and post-emergence; assay type: in vivo; conditions: 10 lb/acre (11.2 kg/ha); scale 0 (no effect) to 3 (complete kill)
[6] = test system: Uncinula necator (vine); experiment: Fungicidal test against foliar disease D (foliage spray plus soil drench); assay type: in vivo; conditions: 100 ppm spray and drench; 10 days
[7] = test system: Sugar beet; experiment: Further herbicidal test, various rates; assay type: in vivo; conditions: scale 0 to 5 (complete kill)
[8] = test system: Groundsel; experiment: Selective herbicidal activity; assay type: in vivo, Senecio vulgaris; conditions: 28 days, scale 0 to 10 (complete kill)
Description: (§1) This Example illustrates the selective herbicidal activity of compounds No. 5 and 12 of Table 1. The compounds, formulated as in Example 5 were sprayed on to pots of soil previously sown with seeds of the plant species shown in Tables 13 and 14.
Groundsel Senecio vulgaris

[9] = test system: Puccinia recondita (wheat); experiment: Fungicidal test against foliar disease A (foliage spray plus soil drench); assay type: in vivo; conditions: 100 ppm spray and drench; 10 days
[10] = test system: Annual Nettle; experiment: Selective herbicidal activity; assay type: in vivo, Urtica urens; conditions: 28 days, scale 0 to 10 (complete kill)
Description: as §1
Annual Nettle Urtica urens

[11] = test system: Tetranychus telarius (red spider mites, eggs); experiment: Pest toxicity test; assay type: in vivo; conditions: 0.1% by weight; French bean; 3 days
[12] = test system: Pea; experiment: Further herbicidal test, various rates; assay type: in vivo; conditions: scale 0 to 5 (complete kill)
[13] = test system: Megoura viceae; experiment: Pest toxicity test; assay type: in vivo; conditions: 0.1% by weight; broad bean; 2 days
[14] = test system: Rice; experiment: Further herbicidal test, various rates; assay type: in vivo; conditions: scale 0 to 5 (complete kill)
[15] = test system: Speedwell; experiment: Selective herbicidal activity; assay type: in vivo, Veronica spp; conditions: 28 days, scale 0 to 10 (complete kill)
Description: as §1

[16] = test system: Plutella maculipennis (diamond back moth larvae); experiment: Pest toxicity test; assay type: in vivo; conditions: 0.1% by weight; mustard/paper; 2 days
[17] = test system: Aedes aegypti (mosquito adults); experiment: Pest toxicity test; assay type: in vivo; conditions: 0.01% by weight; plywood; 1 day
[18] = test system: Mayweed; experiment: Selective herbicidal activity; assay type: in vivo, Tripleurospermum maritimum ssp. inodorum; conditions: 28 days, scale 0 to 10 (complete kill)
Description: as §1
Mayweed Tripleurospermum maritimum

[19] = test system: Venturia inaequalis (apple); experiment: Fungicidal test against foliar disease G (foliage spray plus soil drench); assay type: in vivo; conditions: 100 ppm spray and drench; 21 days
Experimental: This Example illustrates the fungicidal properties of compounds used as active ingredients in the compositions of the invention. The compounds were tested against a wide variety of foliar fungal diseases of plants. In the test, a composition comprising an aqueous solution or suspension of the test compound was sprayed on to the foliage or uninfected plants; the soil in which the plants were growing was also drenched with the composition. The compositions used for spraying and drencing contained 100 parts per million (ppm.) of the test compound except where otherwise stated in the table of results below. After spraying and drenching, the plants were then exposed to infection with the diseases it was desired to control, along with control plants not treated with the compound. After a period of days, depending upon the particular disease, the extent of the disease was visually assessed, as a percentage of the disease established upon the control plants which had not been treated with the compound under test, according to the grading scheme below
In Table 2 below the names of the disease is given in the first column, and in the second column is given the time which elapsed between exposing the plants to infection and assessing the amount of disease.

[20] = test system: White mustard; experiment: Selective herbicidal activity; assay type: in vivo, Sinapis alba; conditions: 28 days, scale 0 to 10 (complete kill)
Description: as §1
White mustard Sinapis alba

[21] = test system: Wheat; experiment: Herbicidal test, pre- and post-emergence; assay type: in vivo; conditions: 10 lb/acre (11.2 kg/ha); scale 0 (no effect) to 3 (complete kill)
[22] = test system: Piricularia oryzae (rice); assay type: in vivo; conditions: 100 ppm spray and drench; 7 days
[23] = test system: Pieris brassicae (cabbage white caterpillars); experiment: Pest toxicity test; assay type: in vivo; conditions: 0.1% by weight, 2 days
[24] = test system: Aphis fabae; experiment: Pest toxicity test; assay type: in vivo; conditions: 0.1% by weight; broad bean; 2 days
[25] = test system: Barley; experiment: Further herbicidal test, various rates; assay type: in vivo; conditions: scale 0 to 5 (complete kill)
[26] = test system: Onion; experiment: Further herbicidal test, various rates; assay type: in vivo; conditions: scale 0 to 5 (complete kill)
[27] = test system: Chickweed; experiment: Selective herbicidal activity; assay type: in vivo, Stellaria media; conditions: 28 days, scale 0 to 10 (complete kill)
Description: as §1
Chickweed Stellaria media

[28] = test system: Lettuce; experiment: Herbicidal test, pre- and post-emergence; assay type: in vivo; conditions: 10 lb/acre (11.2 kg/ha); scale 0 (no effect) to 3 (complete kill)
[29] = test system: Redshank; experiment: Selective herbicidal activity; assay type: in vivo, Polygonum persicaria; conditions: 28 days, scale 0 to 10 (complete kill)
Description: as §1
Redshank Polygonum persicaria

[30] = test system: Carrot; experiment: Further herbicidal test, various rates; assay type: in vivo; conditions: scale 0 to 5 (complete kill)
[31] = test system: Oat; experiment: Further herbicidal test, various rates; assay type: in vivo; conditions: scale 0 to 5 (complete kill)
[32] = test system: Plasmopara viticola (vine); experiment: Fungicidal test against foliar disease C (foliage spray plus soil drench); assay type: in vivo; conditions: 100 ppm spray and drench; 10 days
[33] = test system: Tetranychus telarius (red spider mites, adults); experiment: Pest toxicity test; assay type: in vivo; conditions: 0.1% by weight; French bean; 3 days
[34] = test system: Wild oat; experiment: Selective herbicidal activity; assay type: in vivo, Avenua fatua; conditions: 28 days, scale 0 to 10 (complete kill)
Description: as §1

[35] = test system: Kale; experiment: Further herbicidal test, various rates; assay type: in vivo; conditions: scale 0 to 5 (complete kill)
[36] = test system: Barley; experiment: Selective herbicidal activity; assay type: in vivo; conditions: for Damage to plants: 28 days, scale 0 to 10 (complete kill)
Description: as §1
(§2) Table 14 gives the results for compound No. 12 of Table 1 The figures are assessments of damage to the plants 23 days after treatment, on a scale of 0 to 5 where 0 is no effect and 5 is complete kill

[37] = test system: broadleaved plants; experiment: Selective herbicidal activity; assay type: in vivo; conditions: Tables 13 and 14
Description: as §1, §2

[38] = test system: Wheat; experiment: Selective herbicidal activity; assay type: in vivo; conditions: for Damage to plants: 28 days, scale 0 to 10 (complete kill)
Description: as §1, §2

## O=[N+]([O-])c1ccc(Nc2c(Cl)c(F)nc(F)c2Cl)c(C(F)(F)F)c1 [Compound 5]
[1]
  Mortality grading (kill), contact test: 0 (O represents less than 30% kill)
[2]
  Damage to plants, post-emergence: 3
  Damage to plants, pre-emergence: 3
[3]
  Mortality grading (kill): 0 (O represents less than 30% kill)
[4]; 0.01% by weight, water, 1 day
  Mortality grading (kill): 0 (O represents less than 30% kill)
[4]; in vivo
  abnormal growth effects in larva of mosquitos: abnormal growth effects
[5]
  Damage to plants, post-emergence: 0
  Damage to plants, pre-emergence: 0
[6]
  Amount of disease grading, disease D: 3 (0 to 5)
[7]; 1 lb/acre
  Damage to plants, post-emergence: 5
  Damage to plants, pre-emergence: 0
[7]; 5 lb/acre
  Damage to plants, post-emergence: 5
  Damage to plants, pre-emergence: 5
[8]; 0.5 kg/hectare
  Damage to plants: 4
[8]; 4 kg/hectare
  Damage to plants: 10
[9]
  Amount of disease grading, disease A: 3 (0 to 5)
[10]; 0.5 kg/hectare
  Damage to plants: 10
[10]; 4 kg/hectare
  Damage to plants: 10
[11]
  Mortality grading (kill): 3 (3 represents over 90% kill)
[12]; 1 lb/acre
  Damage to plants, post-emergence: 4
  Damage to plants, pre-emergence: 0
[12]; 5 lb/acre
  Damage to plants, post-emergence: 4
  Damage to plants, pre-emergence: 3
[13]
  Mortality grading (kill): 3 (3 represents over 90% kill)
[14]; 1 lb/acre
  Damage to plants, post-emergence: 0
  Damage to plants, pre-emergence: 3
[14]; 5 lb/acre
  Damage to plants, post-emergence: 0
  Damage to plants, pre-emergence: 5
[15]; 0.5 kg/hectare
  Damage to plants: 10
[15]; 4 kg/hectare
  Damage to plants: 10
[16]
  Mortality grading (kill): 1 (1 represents 30 - 49% kill)
[17]
  Mortality grading (kill): 0 (O represents less than 30% kill)
[18]; 0.5 kg/hectare
  Damage to plants: 6
[18]; 4 kg/hectare
  Damage to plants: 10
[19]
  Amount of disease grading, disease G: 3 (0 to 5)
[20]; 0.5 kg/hectare
  Damage to plants: 0
[20]; 4 kg/hectare
  Damage to plants: 8.5
[21]
  Damage to plants, post-emergence: 0
  Damage to plants, pre-emergence: 2
[22]
  Amount of disease grading, disease E: 0 (61 to 100)
[23]
  Mortality grading (kill): 3 (3 represents over 90% kill)
[24]
  Mortality grading (kill): 3 (3 represents over 90% kill)
[25]; 1 lb/acre
  Damage to plants, post-emergence: 3
  Damage to plants, pre-emergence: 5
[25]; 5 lb/acre
  Damage to plants, post-emergence: 3
  Damage to plants, pre-emergence: 5
[26]; 1 lb/acre
  Damage to plants, post-emergence: 3
  Damage to plants, pre-emergence: 0
[26]; 5 lb/acre
  Damage to plants, post-emergence: 5
  Damage to plants, pre-emergence: 5
[27]; 0.5 kg/hectare
  Damage to plants: 8
[27]; 4 kg/hectare
  Damage to plants: 10
[28]
  Damage to plants, post-emergence: 3
  Damage to plants, pre-emergence: 3
[29]; 0.5 kg/hectare
  Damage to plants: 5
[29]; 4 kg/hectare
  Damage to plants: 10
[30]; 1 lb/acre
  Damage to plants, post-emergence: 5
  Damage to plants, pre-emergence: 2
[30]; 5 lb/acre
  Damage to plants, post-emergence: 5
  Damage to plants, pre-emergence: 5
[31]; 1 lb/acre
  Damage to plants, post-emergence: 3
  Damage to plants, pre-emergence: 2
[31]; 5 lb/acre
  Damage to plants, post-emergence: 4
  Damage to plants, pre-emergence: 5
[32]
  Amount of disease grading, disease C: 3 (0 to 5)
[33]
  Mortality grading (kill): 3 (3 represents over 90% kill)
[34]; 0.5 kg/hectare
  Damage to plants: 0
[34]; 4 kg/hectare
  Damage to plants: 5.5
[35]; 1 lb/acre
  Damage to plants, post-emergence: 5
  Damage to plants, pre-emergence: 0
[35]; 5 lb/acre
  Damage to plants, post-emergence: 5
  Damage to plants, pre-emergence: 5
[36]; 0.5 kg/hectare
  Damage to plants: 0
[36]; 4 kg/hectare
  Damage to plants: 0
[36]; Tables 13 and 14
  damage to barley (in words): undamaged
[37]
  damage to the broadleaved plants (in words): caused damage to the broadleaved plants
[38]; 0.5 kg/hectare
  Damage to plants: 0
[38]; 4 kg/hectare
  Damage to plants: 0
[38]; Tables 13 and 14
  damage to wheat (in words): undamaged
